“Also recorded” adds a separate entry of the source.
What was measured:
[1] = system: TNBC cells (BM1, MB436, MB468, BT549); type: cell-based, human
Procedure: TNBC cell lines stably knocked down with lenti-viral shRNA for BACH1 were constructed and maintained as described previously. Gene expression analysis of cultured cells and isolated tumor tissues used a Reverse transcriptase kit followed by Roche96 cycler for real time mRNA quantification and Lycor imaging for immunoblotting. For in vitro cell viability assay with mitochondrial inhibitors, TNBC cells (2×10^3-5×10^3/well) seeded on 96 well plates overnight with culture media (DMEM with 25 mM Glucose) were treated with inhibitors in fresh culture media (DMEM with 1.25 mM Glucose) for 48 and 72 hours and stained with calcein AM and/or monitored for cellular confluency using an IncuCyte Zoom Live Cell Analysis system. Extracellular flux analyzer was used to assay metabolic phenotypes of BACH1-depleted TNBC cells and TNBC cells that are treated with hemin overnight before assays. For bioinformatics analysis using primary patient data cohort (TCGA), cBioportal and R were used.
(§1) Breast cancer cells (5,000 cells/well) and non-malignant mammary epithelial cells (8,000 cells/well) were plated on 96-well plates to observe growth of cells every 4 hours by phase contrast imaging using an IncuCyte Zoom Live Cell Analysis system (Essen Bioscience). After 24 hours of plating, inhibitors were added and monitored until control cells reached 100% confluent. To determine cell viability, cells were seeded in black walled 96-well plates overnight and treated with inhibitors for 48 hours. Calcein AM (R&D system) in PBS was then added and incubated for 1 hour at 37° C. Fluorescence was determined using a Victor3 plate reader (PerkinElmer) with excitation at 420 nm and emission at 520 nm. The absorbance was used to reflect live cell numbers and was normalized to those in control with vehicles and shown as relative viability (%).

[2] = system: non-malignant mammary epithelial cells (184A1 and MCF10A); assay: Cell viability (calcein AM) of non-malignant mammary epithelial cells; type: cell-based, human; conditions: 48 hours
Procedure: as §1

[3] = system: MB436-shBACH1 and BM1-shBACH1 (and shCont) xenograft TNBC tumors; assay: BACH1-depleted xenograft TNBC tumors treated with metformin; type: in vivo, mouse
Procedure: (§2) Two million human breast cancer cells (MDA-MB-436-shCont, MDA-MB-436-shBACH1, BM1-shBACH1, or BM1-shCont) in 100 μl PBS were injected into the mammary fat pads of 5 to 6 weeks old athymic nude female mice (Charles River Laboratories). When tumors were about 20-30 or 50 mm^3 in volume, hemin (50 mg/kg/day) or vehicle (20 mM NaOH in phosphate buffered saline) was injected intraperitoneally for 10 days prior to metformin treatment for 8 weeks. Metformin (200 mg/kg for MDA-MB-436 cells or 300 mg/kg for BM1-cells) was provided in drinking water ad libidum. Tumor growth was monitored weekly by caliper measurement in two dimensions to generate ellipsoid volumes using an equation of vol.=0.4×(L×W^2).

C3(1)-TAg tumors = assay: Transgenic TNBC mouse model C3(1)-TAg treated with metformin; type: in vivo; conditions: metformin 200 mg/kg/day, absence of hemin; very low BACH1 expression
Procedure: For a transgenic TNBC mouse model, C3(1)-TAg, mice (n=5/group) were treated with metformin (200 mg/kg/day), after 10 days of mice developed palpable tumors (about 25 mm^3), at age of 15 weeks. Tumor volume was assayed by caliper measurement twice per week.

MB436 xenograft tumors = conditions: hemin 50 mg/kg/day i.p. 10 consecutive days prior to metformin 200 mg/kg
Procedure: as §2

[4] = metformin 200-300 mg/kg; cited from earlier work
[5] = in vivo; cited from earlier work
[6] = system: NAD+/NADH in shBACH1 TNBC cells; assay: NAD/NADH-Glo measurement; type: cell-based, human; conditions: pyruvate 2.5 mM added to growth media
Procedure: NAD(H) was measured using the NAD/NADH-Glo Assay kit (Promega) in accordance with the manufacturer's protocol. Lactate produced by cells were measured using the media that 5×10^5 cells were plated on 6 well plates in 2 ml media containing 1.25 mM glucose for 3 days or overnight. Harvested media was used for L-Lactate Assay Kit I (Eton Bioscience). For glucose consumption measurement, media from the cells cultured in 12 well plates were freshly replenished with media containing 5 mM glucose and collected after 21 hours for glucose measurement using Glucose Assay Kit I (Eton Bioscience).

[7] = Cell viability (calcein AM) of non-malignant mammary epithelial cells; type: cell-based, human; conditions: human, non-malignant mammary epithelial cells (184A1 and MCF10A), read-out: reduction of cell viability of non-malignant mammary epithelial cells
Procedure: as §1

## CN(C)C(=N)N=C(N)N [metformin]
[1]
  metformin response on overexpression of wt BACH1 in MB436-shBACH1 cells: generated a metformin-resistance phenotype
[1]; BM1-shBACH1 and MB436-shBACH1 cells
  resistance to metformin on expression of Mut-Bach1 following heme treatment: restored resistance to metformin
[1]; MB436 or BM1 cells
  sensitivity to metformin on BACH knockdown: increased sensitivity to metformin treatment
[1]; pyruvate 2.5 mM, shBACH1 TNBC cells
  inhibitory effect of metformin after addition of pyruvate to growth media: completely rescued the inhibitory effect of metformin
[1]; siRNA for COX15 or UQCRC1 in BM1-shBACH1 cells
  metformin resistance and cell growth after silencing COX15 or UQCRC1: completely restored metformin resistance
[2]
  viability of non-malignant mammary epithelial cells: did not alter the viability
[3]; metformin 300 mg/kg/day
  growth of BM1 xenograft tumors expressing shBACH1: Comparable results
[3]; metformin 200-300 mg/kg in drinking water, within a week of administration, MB436-shBACH1
  growth of TNBC tumors stably expressing shBACH1: drastically suppressed; also recorded: reduction of MB436-shBACH1 tumor volume
[3]; metformin alone, 200-300 mg/kg in drinking water, control (shCont) xenografts
  control tumor growth: no effect on control tumor growth
[3]; shBACH1 MB436 xenograft mice following metformin treatment
  tumor-free mice: a significant fraction of shBACH xenograft mice were tumor-free; also recorded: a significant fraction of shBACH1 MB436 xenograft mice were tumor-free
C3(1)-TAg tumors
  sensitivity of C3(1)-TAg mice tumors: highly sensitive to metformin
MB436 xenograft tumors
  breast tumor growth / volume: neither hemin nor metformin alone significantly altered tumor growth
[4]
  mouse tumor and plasma concentrations: 3 to 12 µM
[5]
  levels in metformin-treated human diabetic patients: ~10 µM

## CC(=O)C(=O)O [pyruvate]
[6]
  NAD+ levels: increased

## C=C(C)[C@H]1Cc2c(ccc3c2O[C@@H]2COc4cc(OC)c(OC)cc4[C@@H]2C3=O)O1 [rotenone]
[7]
  cytotoxicity at 48 h: 25 to 50%

— US10888569B1, “Methods and compositions for treating cancer” (THE UNIVERSITY OF CHICAGO, priority 2017, dated 2021)
